How the values were obtained:
Type in all cases: in vivo
Conditions in all cases: sprayed after 8 days cultivation, evaluated after 13 days, scores from 10 to 0 (10=total damage to plant; 0=no damage to plant)
[1] = system: SETFA; assay: Example B1 herbicidal action post-emergence, SETFA
Procedure: (§1) Seeds of a variety of test species were sown in standard soil in pots. After 8 days cultivation (post-emergence) under controlled conditions in a glasshouse (at 24/16° C., day/night; 14 hours light; 65% humidity), the plants were sprayed with an aqueous spray solution derived from the formulation of the technical active ingredient in acetone/water (50:50) solution containing 0.5% Tween 20 (polyoxyethelyene sorbitan monolaurate, CAS RN 9005-64-5). The test plants were then grown under controlled conditions in a glasshouse (at 24/16° C., day/night; 14 hours light; 65% humidity) and watered twice daily. After 13 days, the test was evaluated and the assessed scores, from 10 to 0, are tabulated in Table B1 (10=total damage to plant; 0=no damage to plant).

[2] = system: ECHCG; assay: Example B1 herbicidal action post-emergence, ECHCG
Procedure: as §1

[3] = system: SOLNI; assay: Example B1 herbicidal action post-emergence, SOLNI
Procedure: as §1

[4] = system: IPOHE; assay: Example B1 herbicidal action post-emergence, IPOHE
Procedure: as §1

[5] = system: AMARE; assay: Example B1 herbicidal action post-emergence, AMARE
Procedure: as §1

| SMILES | assessed score, application post-emergence, SETFA ([1]; Rate 1000 g/ha) | assessed score, application post-emergence, ECHCG ([2]; Rate 1000 g/ha) | assessed score, application post-emergence, SOLNI ([3]; Rate 1000 g/ha) | assessed score, application post-emergence, IPOHE ([4]; Rate 1000 g/ha) | assessed score, application post-emergence, AMARE ([5]; Rate 1000 g/ha) | assessed score, application post-emergence, SETFA ([1]; Rate 250 g/ha) | assessed score, application post-emergence, ECHCG ([2]; Rate 250 g/ha) | assessed score, application post-emergence, SOLNI ([3]; Rate 250 g/ha) | assessed score, application post-emergence, IPOHE ([4]; Rate 250 g/ha) | assessed score, application post-emergence, AMARE ([5]; Rate 250 g/ha) |
| --- | --- | --- | --- | --- | --- | --- | --- | --- | --- | --- |
| C#CCC1c2nccnc2C(O)=C(c2c(Cl)cccc2C(F)(F)F)S1(=O)=O (racemic) [Compound E2] | 8 | 8 | 8 | 8 | 10 |  |  |  |  |  |
| CC1c2nccnc2C(O)=C(c2c(Cl)cccc2C(F)(F)F)S1(=O)=O (racemic) [Compound E3] | 8 | 8 | 8 | 8 | 9 |  |  |  |  |  |
| O=S1(=O)C(c2c(Cl)cccc2C(F)(F)F)=C(O)c2nccnc2C1CC(F)F (racemic) [Compound E4] | 6 | 6 | 8 | 7 | 9 |  |  |  |  |  |
| CCC1c2nccnc2C(O)=C(c2cc(Cl)ccc2C(F)(F)F)S1(=O)=O (racemic) [Compound E6] | 3 | 5 | 8 | 7 | 8 |  |  |  |  |  |
| O=S1(=O)C(c2cc(Cl)ccc2C(F)(F)F)=C(O)c2nccnc2C1CC(F)F (racemic) [Compound E7] |  |  |  |  |  | 2 | 2 | 7 | 7 | 6 |
| O=S1(=O)Cc2nccnc2C(O)=C1c1c(F)ccc(Cl)c1Cl [Compound C1, 7-(2,3-dichloro-6-fluoro-phenyl)-6,6-dioxo-5,6-dihydro-6-λ-6-thia-1,4-diaza-naphthalen-8-ol] | 8 | 7 | 8 | 8 | 10 |  |  |  |  |  |
| O=S1(=O)Cc2nccnc2C(O)=C1c1cc(C(F)(F)F)ccc1Cl [Compound C2] | 0 | 0 | 0 | 0 | 0 |  |  |  |  |  |
| O=S1(=O)Cc2nccnc2C(O)=C1c1cc(Cl)cc(C(F)(F)F)c1 [Compound C3] | 0 | 0 | 0 | 0 | 0 |  |  |  |  |  |
| Cc1cccc(F)c1C1=C(O)c2nccnc2CS1(=O)=O [Compound C4] | 5 | 3 | 4 | 2 | 7 |  |  |  |  |  |
| COc1ccc(Cl)c(C2=C(O)c3nccnc3CS2(=O)=O)c1F [Compound C5] | 4 | 1 | 4 | 3 | 3 |  |  |  |  |  |
| O=S1(=O)Cc2nccnc2C(O)=C1c1c(F)cccc1C(F)(F)F [Compound C6] | 2 | 1 | 3 | 0 | 4 |  |  |  |  |  |
| O=S1(=O)Cc2nccnc2C(O)=C1c1cc(Cl)ccc1C(F)(F)F [Compound C7, 7-(5-chloro-2-trifluoromethyl-phenyl)-6,6-dioxo-5,6-dihydro-6-thia-1,4-diaza-naphthalen-8-ol] | 8 | 6 | 8 | 7 | 8 |  |  |  |  |  |
| O=S1(=O)Cc2nccnc2C(O)=C1c1ccc(F)cc1Cl [Compound C8] | 5 | 3 | 7 | 1 | 5 |  |  |  |  |  |
| O=S1(=O)Cc2nccnc2C(O)=C1c1ccccc1OC(F)F [Compound C9] | 7 | 3 | 4 | 1 | 6 |  |  |  |  |  |
| O=S1(=O)Cc2nccnc2C(O)=C1c1cccc(F)c1C(F)(F)F [Compound C10] | 6 | 5 | 8 | 6 | 6 |  |  |  |  |  |
| O=S1(=O)Cc2nccnc2C(O)=C1c1ccccc1C(F)(F)F [Compound C11] | 7 | 5 | 7 | 5 | 7 |  |  |  |  |  |
| O=S1(=O)Cc2nccnc2C(O)=C1c1c(F)ccc(F)c1Cl [Compound C12] | 6 | 3 | 8 | 6 | 8 |  |  |  |  |  |
| O=S1(=O)Cc2nccnc2C(O)=C1c1c(Cl)cccc1C(F)(F)F [Compound C13] | 8 | 8 | 2 | 8 | 8 |  |  |  |  |  |
| O=S1(=O)Cc2nccnc2C(O)=C1c1ccccc1I [Compound C14] | 7 | 7 | 7 | 8 | 8 |  |  |  |  |  |
| O=S1(=O)Cc2nccnc2C(O)=C1c1cc(F)ccc1Cl [Compound C15] | 6 | 5 | 8 | 3 | 7 |  |  |  |  |  |
| O=S1(=O)Cc2nccnc2C(O)=C1c1cc(C(F)(F)F)ccc1C(F)(F)F [Compound C16] | 3 | 5 | 10 | 7 | 9 |  |  |  |  |  |
| O=S1(=O)Cc2nccnc2C(O)=C1c1ccc(Cl)cc1C(F)(F)F [Compound C17] | 8 | 8 | 10 | 7 | 10 |  |  |  |  |  |
| O=S1(=O)Cc2nccnc2C(O)=C1c1c(Cl)ccc(Cl)c1Cl [Compound C18] | 8 | 8 | 8 | 8 | 7 |  |  |  |  |  |
| O=S1(=O)Cc2nccnc2C(O)=C1c1c(Cl)cccc1Cl [Compound C19] | 8 | 7 | 9 | 8 | 7 |  |  |  |  |  |
| Cc1cc(C)c(C2=C(O)c3nccnc3CS2(=O)=O)c(C)c1 [Compound C20] | 4 | 4 | 7 | 7 | 1 |  |  |  |  |  |
| O=S1(=O)Cc2nccnc2C(O)=C1c1c(F)ccc(Br)c1Cl [Compound C21, 7-(3-bromo-2-chloro-6-fluoro-phenyl)-6,6-dioxo-5,6-dihydro-6-thia-1,4-diaza-naphthalen-8-ol] | 7 | 7 | 10 | 8 | 9 |  |  |  |  |  |
| O=S1(=O)Cc2nccnc2C(O)=C1c1ccc(Br)cc1C(F)(F)F [Compound C22] | 5 | 5 | 9 | 7 | 10 |  |  |  |  |  |
| O=S1(=O)Cc2nccnc2C(O)=C1c1c(Cl)cc(Cl)cc1Cl [Compound C23] | 7 | 8 | 9 | 8 | 8 |  |  |  |  |  |

Source: US8569301B2, “6, 6-dioxo-6-thia-1, 4-diaza-naphthalenes as herbicides” (Syngenta Limited, priority 2009, dated 2013)
